Test: aqueous equilibrium solubility
Assay type: physicochemical
Settings: aqueous suspension on a rotator for 48 hours at room temperature; filtered 0.45-micrometer PTFE; HPLC
Method: The aqueous equilibrium solubility of 3-[4(1,2-diphenyl-but-1-enyl)-phenyl]-acrylic acid, a SERM compound, and its meglumine and lysine salts were determined by placing aqueous suspensions of the corresponding compound on a rotator for 48 hours at room temperature. The samples were filtered using a 0.45-micrometer PTFE filter and analyzed by HPLC. The pH of the filtrate was also determined.

For `CCC(=C(c1ccccc1)c1ccc(C=CC(=O)O)cc1)c1ccccc1` [3-[4(1,2-diphenyl-but-1-enyl)-phenyl]-acrylic acid (free aci], which equilibrium aqueous solubility is on record?
Its equilibrium aqueous solubility is 8.6 µg/mL.

Which equilibrium aqueous solubility does the source give for `CCC(=C(c1ccccc1)c1ccc(C=CC(=O)O)cc1)c1ccccc1` [3-[4(1,2-diphenyl-but-1-enyl)-phenyl]-acrylic acid (meglumin] here?
Its equilibrium aqueous solubility is 700 µg/mL.

For `CCC(=C(c1ccccc1)c1ccc(C=CC(=O)O)cc1)c1ccccc1` [3-[4(1,2-diphenyl-but-1-enyl)-phenyl]-acrylic acid (lysine s], which equilibrium aqueous solubility is on record?
The equilibrium aqueous solubility was 400 µg/mL.

From patent US6417394B2, “Specific salt forms of triphenylethylene derivatives as selective estrogen receptor modulators” (Bristol Myers Squibb Pharma Company, priority 2000, dated 2002)
